Results reported in patent publication US4613598A, “Piperazine derivatives and their acid addition salts” (Mitsubishi Chemical Industries Limited, priority 1984, dated 1986).
Counter-ions that a name gives are not always drawn.

Key:
[1] = system: spontaneous hypertensive rats; assay: Hypotensive activity in non-narcotized, heart-catheterized spontaneous hypertensive rats; format: in vivo; details: Rattus norvegicus, oral, lowest blood pressure during 6 hours after administration, read-out: Hypotensive ratio
Experimental: Hypotensive activity As the experimental animal, spontaneous hypertensive rats 5 to 7 months after birth with a body weight of 300 to 370 g were used. The blood pressure and the heart beat of the non-narcotized, heart-catheterized rats were operatively determined to calculate the averages in blood pressure and heart beat prior to the administration of the present compound. Successively during 6 hours after orally administering the present compound, the blood pressure and the heart beat were determined to calculate the hypotensive ratio by the following formula: [formula] wherein X is the average in blood pressure before administration; and Y is the value of the lowest blood pressure after the administration.

[2] = Acute toxicity (LD50, Litchfield-Wilcoxon method), oral administration to mouse; details: in vivo
Experimental: The present compound was orally administered to mouse and the acute toxicity value (LD50) was calculated according to Litchfield-Wilcoxonmethod.

SMILES | inhibition in vivo at 0.3 mg/kg [1] | inhibition in vivo at 1 mg/kg [1] | inhibition in vivo at 3 mg/kg [1] | LD50 [2] | inhibition in vivo at 10 mg/kg [1]
COc1ccccc1N1CCN(CCCCC(=O)c2ccc(OC)c(S(N)(=O)=O)c2)CC1 [Compound No. 2, 5-[5-[4-(2-methoxyphenyl)-1-piperazinyl]valeryl]-2-methoxy-benzenesulfonamide dihydrochloride] | 10.5% | 34.6% | 19.7% |  | 
COc1ccccc1N1CCN(CCCCC(=O)c2ccc(SC)c(S(N)(=O)=O)c2)CC1 [Compound No. 6, 5-[5-[4-(2-methoxyphenyl)-1-piperazinyl]valeryl]-2-methylthio-benzenesulfonamide] |  | 16.1% | 24.3% | > 3000 mg/kg | 23%
COc1ccccc1N1CCN(CCCCC(=O)c2ccc([S+](C)[O-])c(S(N)(=O)=O)c2)CC1 (centres unmarked) [Compound No. 7, 5-[5-[4-(2-methoxyphenyl)-1-piperazinyl]valeryl]-2-methylsulfinyl-benzenesulfonamide] |  | 8.9% | 17.5% |  | 31.3%
COc1ccccc1N1CCN(CCCCC(=O)c2ccc(O)c(C(N)=O)c2)CC1 [Compound No. 12, 5-[5-[4-(2-methoxyphenyl)-1-piperazinyl]valeryl]-salicylamide] |  |  | 35.2% | > 3000 mg/kg | 
NC(=O)c1cc(C(=O)CCCCN2CCN(c3ccccc3Cl)CC2)ccc1O [Compound No. 13, 5-[5-[4-(2-chlorophenyl)-1-piperazinyl]valeryl]salicylamide] |  |  | 19.7% |  | 16.5%
O=C(O)c1cc(C(O)CCCCN2CCN(c3ccccn3)CC2)ccc1O (centres unmarked) [Compound No. 17, 5-[5-[4-(2-pyridyl)-1-piperazinyl]-1-hydroxypentyl]salicylic acid] |  |  | 21.1% |  | 15.7%
COc1ccccc1N1CCN(CCCCC(=O)c2ccc(O)c(NC(C)=O)c2)CC1 [Compound No. 23, 5-[5-[4-(2-methoxyphenyl)-1-piperazinyl]valeryl]-2-hydroxyacetanilide] |  |  | 36.5% |  | 
COc1ccc(C(=O)CCCCN2CCN(c3ccccc3OC)CC2)cc1NC(N)=O [Compound No. 26, 5-[5-[4-(2-methoxyphenyl)-1-piperazinyl]valeryl]-2-methoxy-N-carbamoylaniline] |  |  | 31.8% | 2700 mg/kg | 
COc1ccc(C(=O)CCCCN2CCN(c3ccccc3OC)CC2)cc1NS(C)(=O)=O [Compound No. 29, 5-[5-[4-(2-methoxyphenyl)-1-piperazinyl]valeryl]-2-methoxy-N-methanesulfonylaniline dihydrochloride] |  | 22.8% | 37.3% |  | 
COc1ccccc1N1CCN(CCCCC(=O)c2ccc(SC)c(NC(N)=O)c2)CC1 [Compound No. 34, 5-[5-[4-(2-methoxyphenyl)-1-piperazinyl]valeryl]-2-methylthio-N-carbamoylaniline] |  | 17.6% | 28.9% |  | 39.9%
COc1ccccc1N1CCN(CCCCC(=O)c2ccc([S+](C)[O-])c(NC(N)=O)c2)CC1 (centres unmarked) [Compound No. 35, 5-[5-[4-(2-methoxyphenyl)-1-piperazinyl]valeryl]-2-methylsulfinyl-N-carbamoylaniline] | 16.5% | 16.1% | 25.6% | > 3000 mg/kg | 47.9%
COc1ccccc1N1CCN(CCCCC(=O)c2ccc3c(c2)NC(=O)CCO3)CC1 [Compound No. 41, 7-[5-[4-(2-methoxyphenyl)-1-piperazinyl]valeryl]-2,3,4,5-tetrahydro-1,5-benzoxazepine-4-one] | 25.9% | 33% | 35.6% |  | 
O=C1CSc2ccc(C(=O)CCCN3CCN(c4ccccn4)CC3)cc2N1 [Compound No. 49] |  | 10.9% | 45.7% |  | 
COc1ccc(C(O)CN2CCN(c3ccccc3)CC2)cc1S(N)(=O)=O (centres unmarked) [Control 1, reference compound] |  | 10.5% |  |  | 2.5%
NC(=O)c1cc(C(=O)CN2CCN(c3ccccc3)CC2)ccc1O [Control 2, 5[2(4-phenyl-1-piperazinyl)acetyl]salicylamide, reference compound] |  | 9.9% | 13.7% |  | 6.6%
COc1ccc(C(O)CN2CCN(c3ccccc3)CC2)cc1NC(N)=O (centres unmarked) [Control 3, reference compound] |  |  | 5.6% |  | 9.4%
